Reference: US12447186B2, “Traditional Chinese medicine compound composition with anti-anxiety effect and preparation method and applications thereof” (Chenland Nutritionals Inc., priority 2020, dated 2025)

Key:
[1] = tested on: mice; test: Open field test; assay type: in vivo; conditions: 6 min, Diazepam 2 mg/kg
Procedure: (§1) After the mice arrived, they were acclimatized for a week to enter the experiment. There were 12 mice in each group.
(§2) The normal group mice were gavaged with the same volume of purified water, and the gavage doses of other groups were illustrated in the results table section below. The mice were gavaged every morning at fixed time (9:00) with a gavage volume of 0.1 ml·10 g^−1. the administration lasted for one month, and behavioral assays were performed 1 h after the last gavage.
The test was performed inside an open field box with 50 cm long, 50 cm wide, and 50 cm deep. The bottom of the open field box was equally divided into nine squares, with the right middle area being the central area and the remaining area being the peripheral area. The bottom and surrounding of the open field box were all white. The test was performed in a quiet weak red light environment. At the beginning, the mice were placed in the center of the open field box, and the activity within 6 minutes was observed. Total running distance, running distance in central area and number of entries into central area of the mice were recorded.

[2] = tested on: mice; test: Light-dark box test; assay type: in vivo; conditions: gavage one month, 5 min, Diazepam 2 mg/kg
Procedure: as §1, §2
The light and dark box is composed of an integral box which is divided into two compartments (light area and dark area) of the same size (L×w×H=25 cm×25 cm×30 cm) by a middle gate (6.5 cm×6.5 cm). The light area is illuminated by white light, and the dark area is illuminated by red light. At the beginning of the test, each mouse was placed in the center of the light area facing the partition wall, and the middle gate was removed. Once four claws of one mouse entered the compartment, it was recorded as one entry. Supermaze software was used to record the distance in light area, retention time in light area and number of entries into light area in 5 minutes.

Compound: CN1C(=O)CN=C(c2ccccc2)c2cc(Cl)ccc21 [Diazepam]
- Total running distance ([1]; gavage daily for one month, 1 h after last gavage): 29927 ± 2380
- Number of entries into central area ([1]; gavage one month): 12.78 ± 1.498
- Running distance in central area ([1]; gavage one month): 2168 ± 218.6
- Distance in light area [2]: 18141 ± 1011
- Number of entries into light area [2]: 18.92 ± 1.540
